Data reported in US11793772B2, “Pharmaceutical composition comprising THA as active ingredient for treating breast cancer” (KOREA UNITED PHARM. INC., priority 2016, dated 2023).

Experiments:
HCC70 cells = test: Cell proliferation inhibitory activity per human breast cancer cell line, HCC70; assay type: cell-based; conditions: as treatment amount increased, FIG. 10C
Protocol: (§1) To measure cell proliferation, SKBR3, T47D, HCC1428, MDA-MD-453, MDA-MB-231, MDA-MB-468, HCC38, HCC70, and HCC1937 cells were plated in respective 96-well dishes (5×10^3 cells/well). For cell stabilization, these cells were incubated in a cell incubator at 36.5° C. for 24 hours, and then treated with a drug, and the number of live cells was measured using an IncuCyte ZOOM live cell analysis system (Essen Bioscience, Ann Arbor, Mich., USA) at intervals of 4 hours.

MDA-MB-231 cells = test: Cell proliferation inhibitory activity per human breast cancer cell line, MDA-MB-231; assay type: cell-based; conditions: as treatment amount increased, FIG. 10B
Protocol: as §1

HCC38 cells = test: Cell proliferation inhibitory activity per human breast cancer cell line, HCC38; assay type: cell-based; conditions: as treatment amount increased, FIG. 10C
Protocol: as §1

SKBR3 cells = test: Cell proliferation inhibitory activity per human breast cancer cell line, SKBR3; assay type: cell-based; conditions: as treatment amount increased, FIG. 10A
Protocol: as §1

HCC1937 cells = test: Cell proliferation inhibitory activity per human breast cancer cell line, HCC1937; assay type: cell-based; conditions: as treatment amount increased, FIG. 10C
Protocol: as §1

T47D cells = test: Cell proliferation inhibitory activity per human breast cancer cell line, T47D; assay type: cell-based; conditions: as treatment amount increased, FIG. 10A
Protocol: as §1

MDA-MB-468 cells = test: Cell proliferation inhibitory activity per human breast cancer cell line, MDA-MB-468; assay type: cell-based; conditions: as treatment amount increased, FIG. 10B
Protocol: as §1

MDA-MD-453 cells = test: Cell proliferation inhibitory activity per human breast cancer cell line, MDA-MD-453; assay type: cell-based; conditions: as treatment amount increased, FIG. 10B
Protocol: as §1

HCC1428 cells = test: Cell proliferation inhibitory activity per human breast cancer cell line, HCC1428; assay type: cell-based; conditions: as treatment amount increased, FIG. 10A
Protocol: as §1

TAMR-MCF-7 cells [1] = test: Tamoxifen-resistant breast cancer cell xenograft mouse model; assay type: in vivo, BALB/c-nu mice
Protocol: In all experiments, 6-week-old female BALB/c-nu mice were raised for 1 week at the Research Center for Animal Experiments in the College of Pharmacy of the Seoul National University at a humidity of 55±5% and a temperature of 22±2° C. and under controlled ventilation conditions and adapted to the environment, and then used in the experiments according to randomized block design, and light/dark cycles were adjusted to 12 hours.
Animal experiments were carried out in accordance with the Experimental Animals Ethics Guidelines. TAMR-MCF-7 cells (5×10^6 cells) were transdermally injected into the left mammary gland of nude mice, and tumor sizes were measured using a caliper twice a week. Tumor volume was calculated by the following formula: Tumor volume=length×width^2. Five weeks after cell transplantation, the mice were euthanized using carbon dioxide gas and the tumors were extracted and weighed.
THA was intraperitoneally administered to a tamoxifen-resistant breast cancer cell-transplanted mouse model every day for 2 weeks at a dose of 6 mg/kg based on a dose known to be effective for bile secretion in the liver. Tumor sizes and weights were measured twice a week during the administration period, and after administration was completed, tumors were extracted, and then the extracted tumor tissues were weighed. PCNA, which is a cell proliferative index, and TUNEL, which is an apoptotic index, were evaluated in the tumor tissues by immunohistochemistry staining, and some tissues were pulverized to quantify cdc25c, which is a downstream signal of Plk1, as a Plk1 activity index, and an increase or decrease in cdc25c expression was confirmed by western blotting.
In addition, THA was administered to a tamoxifen-resistant breast cancer cell-transplanted mouse model at a dose of 10 mg/kg, 30 mg/kg, or 100 mg/kg using an oral zonde needle every day for 2 weeks.

TAMR-MCF-7 cells [2] = test: Cell cycle analysis by flow cytometry; assay type: cell-based, human; conditions: FIG. 4, FIG. 5
Protocol: To measure the cell cycle distribution, cells were plated in a 100 mm dish (5×10^5 cells/well). The cells were fixed with PBS at 4° C., refrigerated in 70% EtOH at 4° C., and cultured for 24 hours. After removing the 70% EtOH, the cells were stained with propidium iodide (PI)/Triton X-100/DNAse-free RNAse A at 37° C. for 15 minutes. 20,000 cells per experimental group were analyzed using an FACS-Calibur™ (BD Biosciences, CA, USA) machine.

TAMR-MCF-7 cells [3] = test: Real-time apoptosis analysis with caspase-3/7 fluorescent substrate; assay type: cell-based, human; conditions: caspase-3/7 selective fluorescent substrate, FIG. 6
Protocol: To measure apoptosis, cells were plated in a 96-well dish (5×10^3 cells/well). The cells were pre-treated with the IncuCyte ZOOM™ 96-well Caspase-3/7 apoptosis assay reagent for 3 hours and treated with a drug, and then the degree of fluorescence expression was measured using an IncuCyte ZOOM™ live cell analysis system (Essen Bioscience, Ann Arbor, Mich., USA) at intervals of 4 hours.

[4] = test system: Polo-like kinase 1 (Plk1); test: Western blotting and immunocytochemistry of Plk1 downstream signals (cdc25c, cyclin B1) in tamoxifen-resistant breast cancer cells; assay type: cell-based, human
Protocol: Sodium dodecyl sulfate-polyacrylamide gel electrophoresis (SDS-PAGE) was performed using a gel electrophoresis apparatus (Mighty Small SE250, Hoefer Scientific Instruments, San Francisco). A cell lysate fraction was diluted in a sample dilution buffer [63 mM Tris (pH 6.8), 10% glycerol, 2% SDS, 0.0013% bromophenol blue, and 5% β-mercaptoethanol], and then electrophoresis was performed thereon in an electrode buffer (15 g of Tris, 72 g of […], and 5 g of SDS included in a 1 L solution) using a 8% to 12% gel. The electrophoresed gel was used to transfer proteins to a nitrocellulose membrane at 190 mAmps for 70 minutes in a transfer buffer (25 mM Tris, 192 mM […], and 20% v/v methanol (pH 8.3)) using a transfer electrophoresis apparatus. The nitrocellulose membrane was reacted with a primary antibody, and then reacted with horseradish peroxidase-conjugated goat anti-rabbit IgG and horseradish peroxidase-conjugated goat anti-mouse IgG as secondary antibodies for 6 hours, followed by color development using an ECL detection system (ECL chemiluminescence system, Amersham, Gaithersberg, Mass.).
To measure fluorescence expression, cells were plated in a 6-well dish (5×10^5 cells/well). Fluorescence was conjugated to cdc25c and cyclin B1 antibodies using SiteClick™ Qdot antibody labeling kits (Thermo Scientific, IL, USA), and fluorescence-conjugated cdc25c and cyclin B1 antibodies were treated in a 6-well dish, and then expression was observed through a fluorescence microscope.
(§2) Tamoxifen-resistant breast cancer cells (TAMR-MCF-7) and/or control breast cancer cells (MCF-7) were treated with 2,4,6-trihydroxyacetophenone (THA), and then it was confirmed whether Plk1 activity and cell proliferation were inhibited, using the method of Example 1.

MCF-7 cells = test: Real-time cell proliferation assay (IncuCyte ZOOM), MCF-7; assay type: cell-based, human; conditions: MCF-7 normal (control) breast cancer cells; FIG. 2
Protocol: (§3) An MCF-7 cell line was sub-cultured in high glucose Dulbeccos Modified Eagle's Medium (DMEM) containing 10% fetal bovine serum, 50 U/ml of penicillin, and 50 μg/ml of streptomycin in an incubator supplied with 5% CO2 at 37° C. to be used for experiments. A TAMR-MCF-7 cell line was cultured in high glucose Dulbeccos Modified Eagle's Medium (DMEM) containing 10% charcoal-stripped fetal bovine serum, 3 μM 4-OH-tamoxifen (Sigma-Aldrich, Mo., USA), 50 U/ml of penicillin, and 50 μg/ml of streptomycin.
(§4) To measure cell proliferation, cells were plated in a 96-well dish (5×10^3 cells/well). After drug treatment, the number of live cells was measured using an IncuCyte ZOOM live cell analysis system (Essen Bioscience, Ann Arbor, Mich., USA) at intervals of 4 hours.
as §2

TAMR-MCF-7 cells [5] = test: Real-time cell proliferation assay (IncuCyte ZOOM), TAMR-MCF-7; assay type: cell-based, human; conditions: TAMR-MCF-7 tamoxifen-resistant breast cancer cells; FIG. 2, FIG. 3
Protocol: as §3, §4, §2

[6] = test system: human breast cancer cell line panel; test: THA reactivity according to Plk1 expression differences per human breast cancer cell line; assay type: cell-based; conditions: 11 breast cancer cell lines classified as low, medium, high Plk1 expression; FIGS. 11A and 11B
[7] = intraperitoneal 6 mg/kg, immunohistochemistry, FIGS. 7D and 7E
[8] = tamoxifen-resistant breast cancer cells, western blotting and immunocytochemistry, FIG. 1

Row | SMILES | cell proliferation (HCC70 cells) | cell proliferation (MDA-MB-231 cells) | cell proliferation (HCC38 cells) | cell proliferation (SKBR3 cells) | cell proliferation (HCC1937 cells) | cell proliferation (T47D cells) | cell proliferation (MDA-MB-468 cells) | cell proliferation (MDA-MD-453 cells) | cell proliferation (HCC1428 cells) | other results
1 | CC[C@@H]1C(=O)N(C)c2cnc(Nc3ccc(C(=O)NC4CCN(C)CC4)cc3OC)nc2N1C1CCCC1 [BI-2536, reference compound] | cell proliferation was inhibited | cell proliferation was inhibited | cell proliferation was inhibited | cell proliferation was inhibited | cell proliferation was inhibited | cell proliferation was inhibited | cell proliferation was inhibited | cell proliferation was inhibited | cell proliferation was inhibited | –
2 | CC(=O)c1c(O)cc(O)cc1O [THA, 2,4,6-trihydroxyacetophenone] | cell proliferation was inhibited | cell proliferation was inhibited | cell proliferation was inhibited | cell proliferation was inhibited | cell proliferation was inhibited | cell proliferation was inhibited | cell proliferation was inhibited | cell proliferation was inhibited | cell proliferation was inhibited | tumor size (TAMR-MCF-7 cells [1]; intraperitoneal 6 mg/kg every day for 2 weeks, compared to control, FIG. 7A): significantly reduced; tumor weight (TAMR-MCF-7 cells [1]; intraperitoneal 6 mg/kg every day for 2 weeks, compared to control, FIG. 7C): significantly reduced; body weight of each mouse (TAMR-MCF-7 cells [1]; intraperitoneal 6 mg/kg every day for 2 weeks, FIG. 7B): maintained at a similar level; PCNA, cell proliferative index, in tumor tissue (TAMR-MCF-7 cells [1]; [7]): reduced; TUNEL, apoptotic index, in tumor tissue (TAMR-MCF-7 cells [1]; [7]): significantly increased; cdc25c expression in tumor tissue (Plk1 activity index) (TAMR-MCF-7 cells [1]; intraperitoneal 6 mg/kg, western blotting, FIG. 7F): significantly inhibited; tumor size (TAMR-MCF-7 cells [1]; oral 10 mg/kg, 30 mg/kg, or 100 mg/kg every day for 2 weeks, compared to control, FIG. 7G): significantly reduced; body weight of each mouse (TAMR-MCF-7 cells [1]; oral 10 mg/kg, 30 mg/kg, or 100 mg/kg every day for 2 weeks, FIG. 7I): maintained at a similar level; cell cycle inhibition (TAMR-MCF-7 cells [2]): S phase arrest; apoptotic index (TAMR-MCF-7 cells [3]): significantly increased; Plk1 inhibitory effect ([4]; concluded from cdc25c decrease and cyclin B1 increase): had a Plk1 inhibitory effect; compensatory cyclin B1 expression [4, 8]: increased compensatory cyclin B1 expression; expression of cdc25c, downstream signal of Plk1 [4, 8]: reduced the expression of cdc25c; inhibition of cell proliferation (MCF-7 cells): inhibited cell proliferation; inhibition of cell proliferation (TAMR-MCF-7 cells [5]): more strongly inhibited cell proliferation; selectivity according to Plk1 expression (correlation between Plk1 expression and IC50 of each cell line) [6]: selectively acts on breast cancer cells with high Plk1 expression
